Laboratory results from patent publication US20160120863A1, “SLC2A TRANSPORTER INHIBITORS” (IOMET PHARMA LTD., priority 2013, published 2016).

Assays:
Assay type in all cases: cell-based
[1] = molecular target: T1, human GLUT1 (Homo sapiens, UniProt P11166); assay: [3H]-deoxy-D-glucose uptake assay, GLUT1; details: [3H]-deoxy-D-glucose uptake in HEK293 cells stably expressing human GLUT1
T1 construct: expressed in transfected cells
T1 sequence (P11166 1-492): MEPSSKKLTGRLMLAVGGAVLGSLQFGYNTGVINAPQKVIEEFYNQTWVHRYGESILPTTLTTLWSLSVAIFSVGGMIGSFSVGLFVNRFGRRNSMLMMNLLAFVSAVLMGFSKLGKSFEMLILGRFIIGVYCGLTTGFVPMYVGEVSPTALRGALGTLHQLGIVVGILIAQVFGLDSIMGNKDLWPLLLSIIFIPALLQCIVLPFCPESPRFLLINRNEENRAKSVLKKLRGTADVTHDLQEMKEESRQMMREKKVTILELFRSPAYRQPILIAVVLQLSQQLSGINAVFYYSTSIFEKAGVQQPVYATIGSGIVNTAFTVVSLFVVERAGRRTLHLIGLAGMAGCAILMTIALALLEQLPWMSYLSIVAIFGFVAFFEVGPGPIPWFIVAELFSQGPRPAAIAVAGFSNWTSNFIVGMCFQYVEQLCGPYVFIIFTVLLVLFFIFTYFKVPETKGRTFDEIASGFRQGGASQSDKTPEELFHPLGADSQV
In short: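 HEK293 cells stably overexpressing human GLUT1 or GLUT2, seeded at 60,000 per well, treated with compounds in glucose-free uptake buffer for 30 min at 37 °C. [3H]-deoxy-D-glucose uptake quantified by scintillation counting after ice-cold PBS washes; IC50 determined.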

[2] = molecular target: T2, human GLUT2 (Homo sapiens, UniProt P11168); assay: [3H]-deoxy-D-glucose uptake assay, GLUT2; details: [3H]-deoxy-D-glucose uptake in HEK293 cells stably expressing human GLUT2
T2 construct: expressed in transfected cells
T2 sequence (P11168 1-524): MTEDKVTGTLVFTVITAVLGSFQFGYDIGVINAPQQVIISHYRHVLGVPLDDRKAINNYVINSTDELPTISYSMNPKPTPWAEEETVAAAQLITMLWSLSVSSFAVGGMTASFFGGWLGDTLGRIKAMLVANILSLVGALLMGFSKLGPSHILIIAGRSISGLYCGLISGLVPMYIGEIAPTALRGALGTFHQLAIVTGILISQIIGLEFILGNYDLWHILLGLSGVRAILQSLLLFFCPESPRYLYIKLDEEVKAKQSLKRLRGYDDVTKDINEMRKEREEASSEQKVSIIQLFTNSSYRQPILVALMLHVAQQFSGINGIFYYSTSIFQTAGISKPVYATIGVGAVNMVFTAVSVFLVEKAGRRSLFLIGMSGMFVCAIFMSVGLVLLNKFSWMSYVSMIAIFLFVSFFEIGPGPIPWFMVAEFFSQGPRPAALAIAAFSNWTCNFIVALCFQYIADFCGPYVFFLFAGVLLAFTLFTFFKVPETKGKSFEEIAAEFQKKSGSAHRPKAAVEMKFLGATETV
Method: (§1) HEK293 cells were engineered to stably express either human GLUT1, GLUT2, GLUt3 or GLUT4 by transfection with the pReceiver-Lv105 plasmid, containing either hGLUT1, hGLUT2, hGLUT3, or hGLUT4 gene constructs with lipofectamine 2000, hGLUT1- hGLUT2- hGLUT3- or hGLUT4-overexpressing polyclonal populations were isolated under purinomycin selective pressure (1 μg/ml) and maintained in Dulbecco's modified Eagle's medium supplemented with 1 μg/ml purinomycin+10% foetal bovine serum (FBS).
60,000 cells per well were seeded overnight into poly-D-lysine coasted 96-well plates. […] 90 μl of test compounds were added in glucose-free uptake buffer and cells were incubated at 37° C. for 30 min.
(§2) Cells were then washed twice with ice-cold PBS and 100 μl of Microscint-20 was added per well. Glucose uptake was quantified with a scintillation counter. The half maximal inhibitory concentration (IC50) (a measure of the effectiveness of the test compound in inhibiting glucose uptake) was determined.

[3] = molecular target: T3, human GLUT3 (Homo sapiens, UniProt P11169); assay: [3H]-deoxy-D-glucose uptake assay, GLUT3; details: [3H]-deoxy-D-glucose uptake in HEK293 cells stably expressing human GLUT3
T3 construct: expressed in transfected cells
T3 sequence (P11169 1-496): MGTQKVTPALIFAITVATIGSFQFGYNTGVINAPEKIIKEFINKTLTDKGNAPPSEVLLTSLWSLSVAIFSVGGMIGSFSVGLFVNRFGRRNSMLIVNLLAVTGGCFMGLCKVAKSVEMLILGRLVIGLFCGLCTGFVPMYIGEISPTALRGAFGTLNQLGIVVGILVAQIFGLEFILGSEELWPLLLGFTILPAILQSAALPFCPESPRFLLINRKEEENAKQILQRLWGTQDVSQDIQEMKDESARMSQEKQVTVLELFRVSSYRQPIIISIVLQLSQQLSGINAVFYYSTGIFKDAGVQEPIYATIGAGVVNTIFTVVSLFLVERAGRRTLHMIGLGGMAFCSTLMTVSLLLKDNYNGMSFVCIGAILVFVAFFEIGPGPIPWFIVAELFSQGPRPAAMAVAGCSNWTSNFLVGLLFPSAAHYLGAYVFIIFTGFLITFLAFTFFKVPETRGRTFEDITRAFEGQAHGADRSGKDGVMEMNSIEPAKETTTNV
Method: as §1
(§3) 60,000 cells per well were seeded overnight into poly-D-lysine coasted 96-well plates. Following media removal, cells were washed twice in warm glucose-free uptake buffer (25 mM HEPES/KOH pH 7.4, 125 mM NaCl, 4.8 mM KCl, 1.2 mM MgSO4, 1.2 mM CaCl2, 1.2 mM KH2PO4). 90 μl of test compounds were added in glucose-free uptake buffer and cells were incubated at 37° C. for 30 min. 10 μl of [3H]-deoxy-D-glucose (0.25 μCi, 125 μM final assay concentration) was then added per well in glucose-free uptake buffer and uptake was allowed to proceed at 37° C. for 30 min.
as §2

[4] = molecular target: T4, human GLUT4 (Homo sapiens, UniProt P14672); assay: [3H]-deoxy-D-glucose uptake assay, GLUT4; details: [3H]-deoxy-D-glucose uptake in HEK293 cells stably expressing human GLUT4
T4 construct: expressed in transfected cells
T4 sequence (P14672 1-509): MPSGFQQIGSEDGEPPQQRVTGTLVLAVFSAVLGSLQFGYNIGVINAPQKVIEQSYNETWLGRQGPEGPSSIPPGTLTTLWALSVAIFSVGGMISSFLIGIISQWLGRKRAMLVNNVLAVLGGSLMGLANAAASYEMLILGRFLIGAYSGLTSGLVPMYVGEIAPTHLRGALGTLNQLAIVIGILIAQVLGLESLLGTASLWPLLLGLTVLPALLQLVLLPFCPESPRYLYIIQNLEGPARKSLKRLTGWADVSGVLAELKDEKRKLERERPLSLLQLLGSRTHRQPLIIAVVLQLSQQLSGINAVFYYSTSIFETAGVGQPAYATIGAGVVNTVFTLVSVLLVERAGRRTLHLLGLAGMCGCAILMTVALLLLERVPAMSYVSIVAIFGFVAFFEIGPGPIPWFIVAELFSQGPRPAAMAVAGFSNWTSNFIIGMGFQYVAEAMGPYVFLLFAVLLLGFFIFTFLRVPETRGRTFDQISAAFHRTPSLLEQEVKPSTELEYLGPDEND
Method: as §1, §3, §2

SMILES | GLUT1 pIC50 [1] | GLUT2 pIC50 [2] | GLUT3 pIC50 [3] | GLUT4 pIC50 [4]
O=C(c1cccc(F)c1)N1CCN(Cc2c(-c3ccc(Cl)cc3)nc3ccc(-c4ccccc4)cn23)CC1 [Compound 8] | +++ (pIC50 ≧ 6.00) | +++ (pIC50 ≧ 6.00) | +++ (pIC50 ≧ 6.00) | +++ (pIC50 ≧ 6.00)
Fc1ccc(-c2ccc3nc(-c4ccc(Cl)cc4)c(CN4CCOCC4)n3c2)cc1 [Compound 79] | +− (pIC50 < 4.00) | +− (pIC50 < 4.00) | + (pIC50 4.00-4.99) | ++ (pIC50 5.00-5.99)
Fc1ccccc1-c1ccc2nc(-c3ccc(Cl)cc3)c(CN3CCOCC3)n2c1 [Compound 80] | +++ (pIC50 ≧ 6.00) | – | +++ (pIC50 ≧ 6.00) | +++ (pIC50 ≧ 6.00)
Clc1ccc(-c2nc3ccc(-c4ccccc4Cl)cn3c2CN2CCOCC2)cc1 [Compound 116] | +++ (pIC50 ≧ 6.00) | – | +++ (pIC50 ≧ 6.00) | +++ (pIC50 ≧ 6.00)
Fc1cccc(F)c1-c1ccc2nc(-c3ccc(Cl)cc3)c(CN3CCOCC3)n2c1 [Compound 143] | +++ (pIC50 ≧ 6.00) | +++ (pIC50 ≧ 6.00) | +++ (pIC50 ≧ 6.00) | +++ (pIC50 ≧ 6.00)
Clc1ccc(-c2nc3cnc(C4CC4)cn3c2CN2CCOCC2)cc1 [Compound 164] | +++ (pIC50 ≧ 6.00) | +++ (pIC50 ≧ 6.00) | +++ (pIC50 ≧ 6.00) | +++ (pIC50 ≧ 6.00)
Cc1c(-c2ccccc2)ccc2nc(-c3ccc(Cl)cc3)c(CN3CCOCC3)n12 [Compound 170] | +++ (pIC50 ≧ 6.00) | – | +++ (pIC50 ≧ 6.00) | +++ (pIC50 ≧ 6.00)
CC(=O)N1CCN(Cc2c(-c3ccc(Cl)cc3)nc3cnc(C4CC4)cn23)CC1 [Compound 187] | +++ (pIC50 ≧ 6.00) | +++ (pIC50 ≧ 6.00) | +++ (pIC50 ≧ 6.00) | +++ (pIC50 ≧ 6.00)
CC(=O)N1CCN(Cc2c(-c3ccc(Cl)cc3)nc3ccc(-c4ccccc4C#N)cn23)CC1 [Compound 214] | +++ (pIC50 ≧ 6.00) | +++ (pIC50 ≧ 6.00) | +++ (pIC50 ≧ 6.00) | +++ (pIC50 ≧ 6.00)
Fc1cccc(F)c1-c1cn2c(CN3CCOCC3)c(-c3ccc(Cl)cc3)nc2cn1 [Compound 238] | +++ (pIC50 ≧ 6.00) | +++ (pIC50 ≧ 6.00) | +++ (pIC50 ≧ 6.00) | +++ (pIC50 ≧ 6.00)
CN(c1ccc2nc(-c3ccc(Cl)cc3)c(CN3CCOCC3)n2c1)S(C)(=O)=O [Compound 252] | +++ (pIC50 ≧ 6.00) | ++ (pIC50 5.00-5.99) | +++ (pIC50 ≧ 6.00) | +++ (pIC50 ≧ 6.00)
O=C(c1ccncc1)N1CCN(Cc2c(-c3ccc(Cl)cc3)nc3cnc(C4CC4)cn23)CC1 [Compound 265] | +++ (pIC50 ≧ 6.00) | +++ (pIC50 ≧ 6.00) | +++ (pIC50 ≧ 6.00) | +++ (pIC50 ≧ 6.00)
CC(=O)N1CCN(Cc2c(-c3ccc(Cl)cc3Cl)nc3cnc(C4CC4)cn23)CC1 [Compound 271] | +++ (pIC50 ≧ 6.00) | +++ (pIC50 ≧ 6.00) | +++ (pIC50 ≧ 6.00) | +++ (pIC50 ≧ 6.00)
O=C(c1cnccn1)N1CCN(Cc2c(-c3ccc(Cl)cc3Cl)nc3cnc(C4CC4)cn23)CC1 [Compound 273] | +++ (pIC50 ≧ 6.00) | +++ (pIC50 ≧ 6.00) | +++ (pIC50 ≧ 6.00) | +++ (pIC50 ≧ 6.00)
O=C(c1ccnnc1)N1CCN(Cc2c(-c3ccc(Cl)cc3Cl)nc3cnc(C4CC4)cn23)CC1 [Compound 296] | +++ (pIC50 ≧ 6.00) | +++ (pIC50 ≧ 6.00) | +++ (pIC50 ≧ 6.00) | +++ (pIC50 ≧ 6.00)
O=C(C1CCOCC1)N1CCN(Cc2c(-c3ccc(Cl)cc3Cl)nc3cnc(C4CC4)cn23)CC1 [Compound 297] | +++ (pIC50 ≧ 6.00) | +++ (pIC50 ≧ 6.00) | +++ (pIC50 ≧ 6.00) | +++ (pIC50 ≧ 6.00)
COCC(=O)N1CCN(Cc2c(-c3ccc(Cl)cc3)nc3ccc(N(C)S(C)(=O)=O)cn23)CC1 [Compound 303] | +++ (pIC50 ≧ 6.00) | ++ (pIC50 5.00-5.99) | +++ (pIC50 ≧ 6.00) | +++ (pIC50 ≧ 6.00)
